Here are results for eight compounds from ChEMBL document CHEMBL1201862, “PubChem BioAssay data set” (2004).

Each structure is given as a SMILES string.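 48-hour exposure; five concentrations; linearly interpolated endpoints. Abbreviation: GI50, concentration required for 50% inhibition of growth.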 Activity calls are given as the source filed them. Rule as the data show it: active = GI50 up to about 1.1 µM and inactive = higher.

Usually GI50 stands for the concentration that inhibits growth by half.

Among the test systems are Malme-3M; LOX IMVI; NCI/ADR-RES; MDA-MB-231; EKVX; SK-OV-3; SF-295; NCI-H23; NCI-H460; RPMI-8226; Hs-578T; CAKI-1; SK-MEL-2; UACC-62; IGROV-1; PC-3; HCC 2998; A549; OVCAR-3; M14.
Common to all, as to experiment: DTP human tumour cell line panel, 48 h

Consider `O=C(/C=C1\N=C(c2ccccc2)N(c2nc3ccc(Sc4ccccc4)cc3[nH]2)C1=O)/C=C/c1ccccc1`, for which the GI50 is 34.7 µM (inactive) in the test on Malme-3M; 17.4 µM (inactive) with LOX IMVI; 24.4 µM (inactive) with NCI/ADR-RES; 22.4 µM (inactive) in the test with MDA-MB-231; 43.4 µM (inactive) with EKVX; 40.9 µM (inactive) in the test with SK-OV-3. The GI50 in the test on SF-295 is 28.2 µM (inactive); in the test on NCI-H23, 31.6 µM (inactive); with NCI-H460, 30.2 µM (inactive); with RPMI-8226 it was 22.6 µM (inactive); in the test with Hs-578T, 26.4 µM (inactive); in the test with CAKI-1 it was 31.3 µM (inactive). For the same compound, the GI50 in the test with SK-MEL-2 is 18.7 µM (inactive); in the test with UACC-62 it was 22.9 µM (inactive); with IGROV-1 it was 45.4 µM (inactive); in the test with PC-3, 30.5 µM (inactive); in the test with HCC 2998 it was 17.4 µM (inactive); in the test on A549 it was 41.1 µM (inactive). The results for the GI50 in the test on OVCAR-3 and with M14 were 29.6 µM (inactive) and 33.3 µM (inactive), respectively.
On to `Cc1ccc2cccc(-c3cccc4ccccc34)c2n1`, for which the GI50 with Malme-3M is 4.63 µM (inactive); in the test on LOX IMVI it was 14.9 µM (inactive); in the test with NCI/ADR-RES, 26.1 µM (inactive); in the test with MDA-MB-231, 22.9 µM (inactive); in the test on EKVX it was 21.4 µM (inactive); in the test with SK-OV-3 it was 23.7 µM (inactive). The GI50 in the test with SF-295 was 22.9 µM (inactive); in the test with NCI-H23, 32.9 µM (inactive); in the test with NCI-H460, 27.5 µM (inactive); in the test on RPMI-8226 it was 13.1 µM (inactive); in the test with Hs-578T it was 23.5 µM (inactive); with CAKI-1 it was 26.6 µM (inactive). The GI50 with SK-MEL-2 was 15 µM (inactive); with UACC-62, 19.5 µM (inactive); in the test on IGROV-1, 26.5 µM (inactive); in the test on PC-3, 29.2 µM (inactive); with HCC 2998, 12.1 µM (inactive); in the test on A549 it was 29.5 µM (inactive). In addition, the GI50 with OVCAR-3 was 25.2 µM (inactive); with M14, 17.2 µM (inactive).
Turning to `OC1CC2CCC(C1)N2CCCN1c2ccccc2Sc2ccc(Cl)cc21` (stereo not given), the GI50 with Malme-3M was 1.87 µM (inactive); in the test with LOX IMVI, 1.7 µM (inactive); in the test on NCI/ADR-RES, 2.36 µM (inactive); with MDA-MB-231 it was 1.84 µM (inactive); with EKVX it was 3.72 µM (inactive); with SK-OV-3 it was 3.37 µM (inactive). Besides, the GI50 in the test on SF-295 is 1.75 µM (inactive); in the test on NCI-H23 it was 3.13 µM (inactive); in the test with NCI-H460, 1.75 µM (inactive); in the test with RPMI-8226, 1.87 µM (inactive); in the test with Hs-578T it was 2.22 µM (inactive); in the test with CAKI-1, 3.01 µM (inactive). For the same compound, the GI50 was 1.69 µM (inactive) in the test on SK-MEL-2; 1.64 µM (inactive) in the test with UACC-62; 1.98 µM (inactive) in the test on IGROV-1; 2.12 µM (inactive) with PC-3; 0.338 µM (active) in the test on HCC 2998; 2.54 µM (inactive) with A549. Also, the GI50 in the test on OVCAR-3 is 2.67 µM (inactive); with M14, 1.81 µM (inactive).
On to `O=C1C(Cl)=C(N2CCN(CCOCCO)CC2)C(=O)c2ncccc21`, for which the GI50 in the test with Malme-3M is 7.85 µM (inactive); in the test on LOX IMVI it was > 10 µM (inactive); in the test on NCI/ADR-RES, > 10 µM (inactive); with MDA-MB-231 it was > 10 µM (inactive); in the test with EKVX it was > 10 µM (inactive); with SK-OV-3, > 10 µM (inactive). In addition, the GI50 in the test with SF-295 is > 10 µM (inactive); with NCI-H23 it was > 10 µM (inactive); in the test with NCI-H460, > 10 µM (inactive); in the test with RPMI-8226, 7.1 µM (inactive); in the test with Hs-578T, > 10 µM (inactive); in the test with CAKI-1, > 10 µM (inactive). Besides, the GI50 with SK-MEL-2, with UACC-62, in the test on IGROV-1, in the test with PC-3, in the test on HCC 2998 and in the test with A549 was > 10 µM (inactive) throughout. Besides, the GI50 in the test with OVCAR-3 and with M14 was > 10 µM (inactive) throughout.
For the compound `CC[C@@]1(OC(=O)C(N)CCCCN)C(=O)OCc2c1cc1n(c2=O)Cc2cc3ccccc3nc2-1` (stereo not given in full), the concentration for 50% growth inhibition (GI50) was 0.196 µM (active) with Malme-3M; 0.0171 µM (active) with LOX IMVI; 0.0354 µM (active) in the test with NCI/ADR-RES; 1.53 µM (inactive) in the test on MDA-MB-231; 0.753 µM (active) in the test on EKVX; 0.105 µM (active) with SK-OV-3. For the same compound, the concentration for 50% growth inhibition (GI50) in the test on SF-295 was < 0.0109 µM (active); in the test on NCI-H23, 0.0219 µM (active); in the test on NCI-H460, < 0.01 µM (active); in the test on RPMI-8226, 0.0327 µM (active); in the test with Hs-578T, 4.52 µM (inactive); in the test with CAKI-1 it was < 0.0152 µM (active). The GI50 with SK-MEL-2 was 0.5 µM (active); in the test on UACC-62, < 0.0128 µM (active); in the test on IGROV-1, 0.212 µM (active); in the test on PC-3, 0.171 µM (active); in the test with HCC 2998, 0.41 µM (active); with A549, 0.0274 µM (active). Further, the GI50 with OVCAR-3 is 0.352 µM (active); with M14, 0.0204 µM (active).
As to `O=C1NC(SSC2=NNC3(C(=O)N2)c2ccccc2-c2ccccc23)=NNC12c1ccccc1-c1ccccc12`, the GI50 in the test on Malme-3M, with LOX IMVI, with NCI/ADR-RES, in the test with MDA-MB-231, in the test with EKVX and in the test on SK-OV-3 was > 10 µM (inactive) in each case. The GI50 in the test with SF-295, with NCI-H23, in the test on NCI-H460, in the test on RPMI-8226, in the test on Hs-578T and with CAKI-1 was > 10 µM (inactive) each time. The GI50 with SK-MEL-2, in the test with UACC-62, in the test with IGROV-1, in the test on PC-3, with HCC 2998 and with A549 was > 10 µM (inactive) throughout. Also, the GI50 in the test with OVCAR-3 and in the test with M14 was > 10 µM (inactive) throughout.
Turning to `Oc1cccnc1CN1CCCCC1`, the GI50 with Malme-3M, in the test on LOX IMVI, in the test on NCI/ADR-RES, in the test with MDA-MB-231, in the test on EKVX and with SK-OV-3 was > 100 µM (inactive) throughout. The GI50 in the test on SF-295, in the test with NCI-H23, with NCI-H460, in the test on RPMI-8226, with Hs-578T and with CAKI-1 was > 100 µM (inactive) throughout. The GI50 with SK-MEL-2, with UACC-62, in the test on IGROV-1, in the test with PC-3, in the test on HCC 2998 and in the test with A549 was > 100 µM (inactive) each time. The GI50 in the test on OVCAR-3 and with M14 was > 100 µM (inactive) in each case.
Regarding `CN(C)c1ccc(/C=C(\NC(=O)c2ccccc2)C(=O)NCC(=O)O)cc1`, the GI50 in the test on Malme-3M, with LOX IMVI, with NCI/ADR-RES, in the test on MDA-MB-231, with EKVX and in the test with SK-OV-3 was > 100 µM (inactive) throughout. Further, the GI50 with SF-295, in the test on NCI-H23, with NCI-H460, in the test with RPMI-8226, with Hs-578T and in the test with CAKI-1 was > 100 µM (inactive) throughout. In addition, the GI50 in the test on SK-MEL-2, in the test on UACC-62, in the test with IGROV-1, in the test with PC-3, in the test with HCC 2998 and in the test with A549 was > 100 µM (inactive) throughout. The GI50 in the test on OVCAR-3 and with M14 was > 100 µM (inactive) in each case.
